Data as given in ChEMBL document CHEMBL1201862, “PubChem BioAssay data set” (2004).
Activity calls are given as the source filed them.

Tests used:
[1] = biological target: T1, E3 ubiquitin-protein ligase XIAP (Homo sapiens, UniProt P98170); experiment: Counter Screen using XIAP-Bir3 for Chemical Antagonists of Bir1/2 domains of IAP-family anti-apoptotic proteins. [Related pubchem assays (depositor defined):AID1018, AID1449, AID1514, AID1638, AID1749, AID1750, AID488957, AID488963]
[2] = biological target: T1, E3 ubiquitin-protein ligase XIAP; experiment: XIAP antagonists, biochemical, IAP family, fluorescence polarization (AID 1018); type: functional
SUMO-activating enzyme [3] = biological target: T2, SUMO-activating enzyme (Homo sapiens, UniProt Q9UBT2); experiment: SUMOylation inhibitor hit validation, confirmation, SUMOylation inhibitor project, biochemical, AlphaScreen (AID 2018); type: functional
T2 sequence (Q9UBE0 whole entry): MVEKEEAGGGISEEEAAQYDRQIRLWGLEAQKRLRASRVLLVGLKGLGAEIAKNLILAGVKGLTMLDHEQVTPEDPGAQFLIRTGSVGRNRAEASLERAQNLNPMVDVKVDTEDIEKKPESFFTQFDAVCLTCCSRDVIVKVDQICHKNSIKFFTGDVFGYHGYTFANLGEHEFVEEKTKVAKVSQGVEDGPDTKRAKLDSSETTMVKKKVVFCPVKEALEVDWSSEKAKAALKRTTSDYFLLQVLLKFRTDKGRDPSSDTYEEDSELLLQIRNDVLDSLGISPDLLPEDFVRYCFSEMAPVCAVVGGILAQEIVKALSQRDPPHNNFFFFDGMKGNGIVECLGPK
T2 sequence (Q9UBT2 whole entry): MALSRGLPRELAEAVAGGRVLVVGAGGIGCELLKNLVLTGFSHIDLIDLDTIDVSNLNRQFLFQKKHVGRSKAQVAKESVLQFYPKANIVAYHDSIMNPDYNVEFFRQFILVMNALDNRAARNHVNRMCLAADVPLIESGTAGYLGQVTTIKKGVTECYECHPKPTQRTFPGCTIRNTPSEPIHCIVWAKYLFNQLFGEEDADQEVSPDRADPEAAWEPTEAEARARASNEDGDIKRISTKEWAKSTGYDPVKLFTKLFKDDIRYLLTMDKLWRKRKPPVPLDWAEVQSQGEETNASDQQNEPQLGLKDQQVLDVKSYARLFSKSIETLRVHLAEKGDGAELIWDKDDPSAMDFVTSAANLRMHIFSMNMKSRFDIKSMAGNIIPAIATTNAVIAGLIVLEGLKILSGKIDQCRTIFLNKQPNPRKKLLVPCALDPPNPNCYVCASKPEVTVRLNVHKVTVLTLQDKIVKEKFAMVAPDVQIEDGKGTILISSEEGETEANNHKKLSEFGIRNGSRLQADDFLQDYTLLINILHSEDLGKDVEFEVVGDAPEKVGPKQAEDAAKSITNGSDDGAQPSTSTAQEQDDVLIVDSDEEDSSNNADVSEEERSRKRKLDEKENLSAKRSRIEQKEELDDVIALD

SUMO-activating enzyme [4] = biological target: T2, SUMO-activating enzyme; experiment: inhibitors of in vitro SUMOylation cascade, primary screen, biochemical, HTRF, uHTS (AID 2006); type: protein-complex assay
[5] = Luminescence Cell-Based Dose Retest to Confirm Inhibitors of Cancer Stem Cells. [Related pubchem assays (depositor defined):AID2717, AID2721]; type: functional; settings: Homo sapiens
[6] = biological target: T3, Heat shock factor protein 1 (Mus musculus, UniProt P38532); experiment: HSF1 potentiators in luciferase reporter cells, confirmation, cell-based, NIH3T3, luminescence, dose retest (AID 435004); type: functional;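 note: stress induced by proteasome inhibitor MG132 added 30 min after compound; luciferase reporter driven by HSF1 response element in NIH3T3 cells; actives raise luminescence as potentiators of the MG132 stress response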
T3 sequence (P38532 whole entry): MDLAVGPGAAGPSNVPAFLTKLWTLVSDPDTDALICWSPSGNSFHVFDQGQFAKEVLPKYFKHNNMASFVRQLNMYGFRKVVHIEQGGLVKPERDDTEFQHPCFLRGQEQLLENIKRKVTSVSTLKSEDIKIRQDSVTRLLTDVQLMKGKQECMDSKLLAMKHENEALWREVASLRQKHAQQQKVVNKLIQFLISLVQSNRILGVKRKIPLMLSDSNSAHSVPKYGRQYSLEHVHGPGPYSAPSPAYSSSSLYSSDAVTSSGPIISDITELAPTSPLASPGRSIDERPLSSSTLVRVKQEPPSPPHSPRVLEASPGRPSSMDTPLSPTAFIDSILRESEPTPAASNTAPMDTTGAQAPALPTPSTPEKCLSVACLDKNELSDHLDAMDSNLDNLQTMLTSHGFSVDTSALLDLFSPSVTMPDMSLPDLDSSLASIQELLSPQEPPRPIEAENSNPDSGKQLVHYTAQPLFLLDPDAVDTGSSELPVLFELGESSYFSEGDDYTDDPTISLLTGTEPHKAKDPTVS

[7] = biological target: T4, Voltage-gated N-type calcium channel alpha-1B subunit/Amyloid beta A4 precursor protein-binding family A member 1 (Homo sapiens, UniProt Q00975+Q02410); type: protein assay
T4 sequence (Q00975 whole entry): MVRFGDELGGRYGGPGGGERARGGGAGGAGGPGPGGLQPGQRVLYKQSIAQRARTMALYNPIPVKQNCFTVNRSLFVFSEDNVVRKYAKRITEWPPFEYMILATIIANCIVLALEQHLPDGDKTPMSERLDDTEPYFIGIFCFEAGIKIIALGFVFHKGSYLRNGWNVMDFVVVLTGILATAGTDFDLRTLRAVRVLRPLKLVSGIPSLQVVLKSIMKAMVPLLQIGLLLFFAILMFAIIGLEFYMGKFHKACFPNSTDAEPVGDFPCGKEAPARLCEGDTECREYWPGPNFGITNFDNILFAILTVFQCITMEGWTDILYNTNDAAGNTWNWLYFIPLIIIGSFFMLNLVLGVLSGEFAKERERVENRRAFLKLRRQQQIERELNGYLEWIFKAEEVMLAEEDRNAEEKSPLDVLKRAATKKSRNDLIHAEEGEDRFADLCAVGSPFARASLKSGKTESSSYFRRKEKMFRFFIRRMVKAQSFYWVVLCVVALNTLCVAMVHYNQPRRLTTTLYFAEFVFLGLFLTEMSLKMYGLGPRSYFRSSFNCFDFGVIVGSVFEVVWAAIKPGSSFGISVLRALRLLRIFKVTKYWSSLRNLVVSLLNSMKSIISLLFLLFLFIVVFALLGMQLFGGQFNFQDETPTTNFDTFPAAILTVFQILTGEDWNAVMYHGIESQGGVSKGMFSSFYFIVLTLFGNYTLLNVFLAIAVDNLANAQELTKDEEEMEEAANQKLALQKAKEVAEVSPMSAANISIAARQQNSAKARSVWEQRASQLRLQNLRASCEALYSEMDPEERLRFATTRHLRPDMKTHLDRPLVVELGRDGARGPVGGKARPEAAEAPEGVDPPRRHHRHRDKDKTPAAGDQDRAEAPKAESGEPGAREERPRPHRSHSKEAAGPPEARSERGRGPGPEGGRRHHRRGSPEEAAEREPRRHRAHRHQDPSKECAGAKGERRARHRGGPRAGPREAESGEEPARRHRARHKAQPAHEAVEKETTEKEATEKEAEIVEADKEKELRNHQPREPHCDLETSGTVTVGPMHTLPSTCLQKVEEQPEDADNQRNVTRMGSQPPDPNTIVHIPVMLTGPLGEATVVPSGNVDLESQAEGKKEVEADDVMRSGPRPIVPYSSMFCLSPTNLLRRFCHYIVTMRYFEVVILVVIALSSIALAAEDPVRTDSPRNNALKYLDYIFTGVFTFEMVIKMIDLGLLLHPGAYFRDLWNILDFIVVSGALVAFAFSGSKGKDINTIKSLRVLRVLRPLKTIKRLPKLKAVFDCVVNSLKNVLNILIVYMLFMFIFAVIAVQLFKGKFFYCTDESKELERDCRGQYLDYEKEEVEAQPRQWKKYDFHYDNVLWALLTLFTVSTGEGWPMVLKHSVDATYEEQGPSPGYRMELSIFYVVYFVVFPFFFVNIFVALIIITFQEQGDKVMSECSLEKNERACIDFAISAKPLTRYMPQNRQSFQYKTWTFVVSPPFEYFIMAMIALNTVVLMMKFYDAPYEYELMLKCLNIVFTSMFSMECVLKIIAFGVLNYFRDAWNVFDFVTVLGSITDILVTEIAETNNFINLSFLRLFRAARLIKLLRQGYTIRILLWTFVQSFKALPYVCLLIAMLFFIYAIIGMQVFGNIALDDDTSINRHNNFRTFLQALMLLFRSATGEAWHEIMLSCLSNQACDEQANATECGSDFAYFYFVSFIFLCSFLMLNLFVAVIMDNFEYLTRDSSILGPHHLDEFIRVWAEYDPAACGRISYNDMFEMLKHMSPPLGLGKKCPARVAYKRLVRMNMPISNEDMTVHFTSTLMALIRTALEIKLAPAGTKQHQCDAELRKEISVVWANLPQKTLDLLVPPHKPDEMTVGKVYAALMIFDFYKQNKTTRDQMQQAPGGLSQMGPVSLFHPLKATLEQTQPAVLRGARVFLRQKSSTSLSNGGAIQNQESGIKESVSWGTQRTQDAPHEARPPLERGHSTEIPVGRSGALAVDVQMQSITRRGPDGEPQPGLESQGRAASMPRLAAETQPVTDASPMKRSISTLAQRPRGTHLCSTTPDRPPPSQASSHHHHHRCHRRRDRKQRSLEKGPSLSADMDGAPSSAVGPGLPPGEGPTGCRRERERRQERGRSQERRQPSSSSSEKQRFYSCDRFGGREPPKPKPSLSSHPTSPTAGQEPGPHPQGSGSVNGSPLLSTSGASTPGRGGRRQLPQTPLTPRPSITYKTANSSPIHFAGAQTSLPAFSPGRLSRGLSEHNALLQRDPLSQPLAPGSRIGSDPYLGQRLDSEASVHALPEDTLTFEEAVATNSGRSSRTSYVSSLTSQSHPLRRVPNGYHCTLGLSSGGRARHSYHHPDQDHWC
T4 sequence (Q02410 whole entry): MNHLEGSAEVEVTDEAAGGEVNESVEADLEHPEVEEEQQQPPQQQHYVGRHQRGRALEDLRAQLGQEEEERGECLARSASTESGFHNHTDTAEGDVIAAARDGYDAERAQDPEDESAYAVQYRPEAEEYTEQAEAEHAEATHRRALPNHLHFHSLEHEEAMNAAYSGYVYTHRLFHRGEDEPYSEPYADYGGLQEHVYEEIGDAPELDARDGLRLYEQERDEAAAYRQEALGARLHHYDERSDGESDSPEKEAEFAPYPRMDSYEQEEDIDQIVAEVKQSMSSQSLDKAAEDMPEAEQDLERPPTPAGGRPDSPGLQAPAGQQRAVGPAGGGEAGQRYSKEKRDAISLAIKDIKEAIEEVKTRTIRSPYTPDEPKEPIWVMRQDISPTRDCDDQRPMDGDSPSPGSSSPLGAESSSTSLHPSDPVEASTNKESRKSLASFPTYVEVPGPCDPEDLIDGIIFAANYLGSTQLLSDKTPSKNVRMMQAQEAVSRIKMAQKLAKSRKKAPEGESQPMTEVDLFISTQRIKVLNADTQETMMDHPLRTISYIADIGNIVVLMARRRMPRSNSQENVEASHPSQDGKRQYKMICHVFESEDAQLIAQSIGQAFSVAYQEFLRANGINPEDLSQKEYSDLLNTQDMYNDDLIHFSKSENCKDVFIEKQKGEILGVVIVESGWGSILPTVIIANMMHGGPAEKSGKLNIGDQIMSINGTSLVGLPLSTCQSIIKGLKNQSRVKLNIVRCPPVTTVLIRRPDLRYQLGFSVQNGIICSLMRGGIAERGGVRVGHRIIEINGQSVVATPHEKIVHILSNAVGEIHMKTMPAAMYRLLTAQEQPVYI

[8] = biological target: T5, Microphthalmia-associated transcription factor (Homo sapiens, UniProt O75030); experiment: TRPM1 promoter luciferase signal decrease, dose response, MITF inhibitor project, cell-based, SK-MEL-5, cherry-picked, set 3 (AID 493073); type: functional
T5 sequence (O75030 whole entry): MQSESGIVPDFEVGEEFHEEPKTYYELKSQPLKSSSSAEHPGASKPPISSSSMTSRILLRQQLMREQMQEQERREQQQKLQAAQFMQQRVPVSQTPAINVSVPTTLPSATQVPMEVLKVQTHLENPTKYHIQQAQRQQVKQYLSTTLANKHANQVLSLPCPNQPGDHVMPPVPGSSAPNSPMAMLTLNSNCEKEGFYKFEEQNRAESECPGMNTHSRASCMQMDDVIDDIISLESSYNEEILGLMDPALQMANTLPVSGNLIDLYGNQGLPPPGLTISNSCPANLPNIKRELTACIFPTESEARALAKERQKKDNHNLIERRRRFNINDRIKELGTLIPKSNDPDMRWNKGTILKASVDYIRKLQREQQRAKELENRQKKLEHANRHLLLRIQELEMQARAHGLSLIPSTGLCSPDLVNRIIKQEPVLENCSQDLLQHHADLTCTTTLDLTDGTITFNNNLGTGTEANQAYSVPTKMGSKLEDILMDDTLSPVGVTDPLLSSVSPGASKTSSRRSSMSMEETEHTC

[9] = biological target: T4, Voltage-gated N-type calcium channel alpha-1B subunit/Amyloid beta A4 precursor protein-binding family A member 1; type: protein assay; remark: listed apart in the source
[10] = biological target: T6, Alkaline phosphatase, tissue-nonspecific isozyme (Homo sapiens, UniProt P05186); experiment: human TNAP enzyme inhibitors, SAR follow-up, biochemical, luminescent, dose response (AID 1056)
T6 sequence (P05186 whole entry): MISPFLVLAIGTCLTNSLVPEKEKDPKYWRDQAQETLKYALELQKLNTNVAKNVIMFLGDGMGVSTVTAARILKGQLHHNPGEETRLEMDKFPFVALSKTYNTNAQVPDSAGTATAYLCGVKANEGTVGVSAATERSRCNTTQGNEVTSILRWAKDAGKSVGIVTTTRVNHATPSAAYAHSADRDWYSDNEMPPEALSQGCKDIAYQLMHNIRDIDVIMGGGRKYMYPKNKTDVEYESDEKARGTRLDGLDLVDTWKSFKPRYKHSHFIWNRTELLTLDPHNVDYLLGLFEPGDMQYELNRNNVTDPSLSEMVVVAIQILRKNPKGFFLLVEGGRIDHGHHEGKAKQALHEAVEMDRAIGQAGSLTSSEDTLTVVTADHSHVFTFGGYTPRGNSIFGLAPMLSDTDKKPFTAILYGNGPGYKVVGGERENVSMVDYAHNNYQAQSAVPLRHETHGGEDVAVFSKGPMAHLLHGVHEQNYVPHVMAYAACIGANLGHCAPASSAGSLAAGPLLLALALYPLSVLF

[11] = biological target: Glyceraldehyde-3-phosphate dehydrogenase (Homo sapiens, UniProt P04406)
Glyceraldehyde-3-phosphate dehydrogenase, sequence (P04406 whole entry): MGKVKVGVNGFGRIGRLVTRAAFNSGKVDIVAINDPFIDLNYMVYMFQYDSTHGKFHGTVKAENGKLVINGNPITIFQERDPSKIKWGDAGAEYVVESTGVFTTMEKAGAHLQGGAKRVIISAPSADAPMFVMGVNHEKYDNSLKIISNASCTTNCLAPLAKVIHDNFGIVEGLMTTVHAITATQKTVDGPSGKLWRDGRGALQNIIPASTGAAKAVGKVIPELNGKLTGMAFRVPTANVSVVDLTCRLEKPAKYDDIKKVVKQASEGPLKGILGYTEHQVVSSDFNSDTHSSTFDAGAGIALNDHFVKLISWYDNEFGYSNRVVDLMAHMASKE

[12] = biological target: T7, Rac GTPase-activating protein 1 (Homo sapiens, UniProt Q9H0H5); experiment: MgcRacGAP GTPase-activating activity inhibitors, confirmation, biochemical, ADP Hunter fluorescence, primary and confirmatory (AID 624330); type: functional
T7 sequence (Q9H0H5 whole entry): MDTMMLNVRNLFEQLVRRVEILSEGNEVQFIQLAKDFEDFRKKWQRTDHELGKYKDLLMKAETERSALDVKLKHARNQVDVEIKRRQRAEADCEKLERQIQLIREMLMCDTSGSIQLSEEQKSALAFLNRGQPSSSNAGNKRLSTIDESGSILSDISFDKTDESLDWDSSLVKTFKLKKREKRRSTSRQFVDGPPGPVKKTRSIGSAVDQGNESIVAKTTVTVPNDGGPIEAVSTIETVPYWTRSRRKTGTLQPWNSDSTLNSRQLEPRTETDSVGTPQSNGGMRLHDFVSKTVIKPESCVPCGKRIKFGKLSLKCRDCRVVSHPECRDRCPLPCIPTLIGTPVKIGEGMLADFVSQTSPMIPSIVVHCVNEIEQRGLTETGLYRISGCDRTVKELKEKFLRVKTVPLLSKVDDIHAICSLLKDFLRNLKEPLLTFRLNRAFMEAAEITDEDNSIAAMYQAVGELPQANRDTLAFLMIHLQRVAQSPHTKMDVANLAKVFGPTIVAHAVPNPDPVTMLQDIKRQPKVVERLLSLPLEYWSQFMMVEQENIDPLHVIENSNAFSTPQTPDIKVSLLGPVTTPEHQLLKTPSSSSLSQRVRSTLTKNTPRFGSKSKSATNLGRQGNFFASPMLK

[13] = biological target: DNA dC->dU-editing enzyme APOBEC-3G (Homo sapiens, UniProt Q9HC16); experiment: Dose Response confirmation of small molecule APOBEC3G DNA Deaminase Inhibitors via a fluorescence-based single-stranded DNA deaminase assay. [Related pubchem assays (depositor defined):AID493012, AID493028]; type: functional
[14] = biological target: DNA dC->dU-editing enzyme APOBEC-3A (Homo sapiens, UniProt P31941); experiment: APOBEC3A DNA deaminase inhibitors, dose response, biochemical (AID 504722); type: functional
[15] = biological target: T8, Sentrin-specific protease 8 (Homo sapiens, UniProt Q96LD8); type: functional
T8 sequence (Q96LD8 whole entry): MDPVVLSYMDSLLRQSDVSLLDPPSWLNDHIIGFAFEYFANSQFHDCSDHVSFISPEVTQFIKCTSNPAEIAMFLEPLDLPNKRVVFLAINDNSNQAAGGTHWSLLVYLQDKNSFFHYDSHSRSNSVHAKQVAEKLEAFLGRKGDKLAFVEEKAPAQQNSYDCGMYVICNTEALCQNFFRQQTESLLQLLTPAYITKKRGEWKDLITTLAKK

[16] = biological target: T9, Mannose-6-phosphate isomerase (Homo sapiens, UniProt P34949); experiment: human PMI inhibitors, high substrate, primary screen, biochemical, fluorescence intensity, high mannose 6-phosphate (AID 1220)
T9 sequence (P34949 whole entry): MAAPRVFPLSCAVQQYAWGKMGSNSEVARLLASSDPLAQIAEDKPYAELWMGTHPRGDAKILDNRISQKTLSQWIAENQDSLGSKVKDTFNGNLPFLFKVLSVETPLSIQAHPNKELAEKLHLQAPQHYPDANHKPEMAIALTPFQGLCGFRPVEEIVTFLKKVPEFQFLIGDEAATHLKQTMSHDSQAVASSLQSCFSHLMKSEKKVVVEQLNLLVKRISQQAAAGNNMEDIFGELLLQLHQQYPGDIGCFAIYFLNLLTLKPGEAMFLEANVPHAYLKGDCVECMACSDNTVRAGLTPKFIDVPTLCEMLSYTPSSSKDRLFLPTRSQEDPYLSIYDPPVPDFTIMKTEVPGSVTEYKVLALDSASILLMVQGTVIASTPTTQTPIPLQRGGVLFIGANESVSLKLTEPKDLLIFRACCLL

[17] = biological target: T8, Sentrin-specific protease 8; type: functional; remark: listed apart in the source
Beta-galactosidase = Beta-galactosidase (Escherichia coli, UniProt Q8VNN2); experiment: PubChem AID 485352; type: functional
[18] = biological target: T10, Type-1 angiotensin II receptor (Homo sapiens, UniProt P30556); experiment: AT1 receptor antagonists, dose response, selectivity assay for APJ receptor antagonist project, cell-based, uHTS hits (AID 463214); type: functional;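 note: antagonist potency against angiotensin II stimulated AT1 response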
T10 sequence (P30556 whole entry): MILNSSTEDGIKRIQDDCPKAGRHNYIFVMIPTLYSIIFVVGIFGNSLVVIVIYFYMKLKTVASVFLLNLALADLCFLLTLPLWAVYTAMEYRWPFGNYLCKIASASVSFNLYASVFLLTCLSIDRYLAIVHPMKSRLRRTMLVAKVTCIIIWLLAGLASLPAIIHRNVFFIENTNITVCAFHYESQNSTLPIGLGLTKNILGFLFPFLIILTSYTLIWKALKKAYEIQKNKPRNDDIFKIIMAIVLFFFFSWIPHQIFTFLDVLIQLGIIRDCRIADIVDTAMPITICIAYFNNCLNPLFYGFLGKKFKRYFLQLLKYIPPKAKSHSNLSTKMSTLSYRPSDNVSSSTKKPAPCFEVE

Hexokinase = biological target: T11, Hexokinase (Trypanosoma brucei, UniProt Q38C41); experiment: Confirmation assay for inhibitors of Trypanosoma brucei hexokinase 1-Analogue-first series. [Related pubchem assays (depositor defined):AID1430, AID1632, AID2516, AID2560, AID2579, AID2600, AID449725, AID492951]; type: functional
T11 sequence (Q38C41 whole entry): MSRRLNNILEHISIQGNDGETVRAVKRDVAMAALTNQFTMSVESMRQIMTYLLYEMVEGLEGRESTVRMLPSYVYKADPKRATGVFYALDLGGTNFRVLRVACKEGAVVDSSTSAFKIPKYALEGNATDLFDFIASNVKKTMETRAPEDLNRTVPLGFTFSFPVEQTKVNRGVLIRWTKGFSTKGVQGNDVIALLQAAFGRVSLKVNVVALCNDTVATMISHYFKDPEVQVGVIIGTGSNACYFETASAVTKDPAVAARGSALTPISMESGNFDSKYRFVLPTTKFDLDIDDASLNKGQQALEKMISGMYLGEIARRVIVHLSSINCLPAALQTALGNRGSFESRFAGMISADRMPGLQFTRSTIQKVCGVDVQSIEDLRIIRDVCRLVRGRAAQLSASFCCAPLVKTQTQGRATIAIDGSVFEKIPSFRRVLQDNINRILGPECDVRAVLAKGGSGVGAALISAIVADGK

T1 sequence (P98170 whole entry): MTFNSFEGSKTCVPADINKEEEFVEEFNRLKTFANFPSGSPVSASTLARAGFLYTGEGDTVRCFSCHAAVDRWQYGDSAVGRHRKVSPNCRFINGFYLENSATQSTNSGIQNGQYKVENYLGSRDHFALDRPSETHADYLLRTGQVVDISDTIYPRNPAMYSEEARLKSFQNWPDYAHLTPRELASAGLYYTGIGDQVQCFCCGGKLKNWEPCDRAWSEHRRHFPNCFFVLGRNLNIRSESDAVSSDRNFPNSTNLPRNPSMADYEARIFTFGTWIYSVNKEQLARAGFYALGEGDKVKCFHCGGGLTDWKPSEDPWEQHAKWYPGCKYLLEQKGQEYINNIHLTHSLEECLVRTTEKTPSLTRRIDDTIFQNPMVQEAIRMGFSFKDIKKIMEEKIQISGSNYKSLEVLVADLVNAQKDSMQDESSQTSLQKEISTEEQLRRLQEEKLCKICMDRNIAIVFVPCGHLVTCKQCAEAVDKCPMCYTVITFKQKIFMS

## c1c(CN2CCCCC2)n[nH]c1C1CCCCC1
[1]
  IC50: > 100 µM (inactive)
[2]
  IC50: > 100 µM (not active)

## O=C1C(C2=NC(c3ccccn3)C3C(=O)N(c4ccc(Cl)cc4Cl)C(=O)C23)=C(O)c2ccccc21 (centres undefined)
SUMO-activating enzyme [3]
  IC50: 34.6 µM (active)
SUMO-activating enzyme [4]
  IC50: 15 µM (active)
[5]
  AC50: 13.6 µM (active)

## CCOc1cc(/C=C\[N+](=O)[O-])ccc1OCC(=O)N1CCOCC1
[6]
  EC50: 11 µM (active)
[7]
  IC50: 9.89 µM (active)
[8]
  AC50: 7.35 µM (active)
[9]
  IC50: 29.4 µM (active)

## Cc1ccccc1S(=O)(=O)Nc1nc2ccccc2nc1Cl
[10]
  IC50: > 100 µM (inactive)
[11]
  IC50: > 100 µM (not active)

## N#Cc1c(=O)c2nc(NCc3ccccc3)ncc2n2ccccc12
SUMO-activating enzyme [3]
  IC50: 14.3 µM (active)

## CN1CCN(C(=O)Cc2nc3ccccc3[nH]2)CC1
[1]
  IC50: > 100 µM (inactive)
[2]
  IC50: > 100 µM (not active)

## O=C(Nc1nnc(S)s1)c1ccco1
[12]
  IC50: 102 µM (active)
[13]
  IC50: 5.51 µM (active)
[14]
  IC50: > 100 µM (inactive)

## O=C1Nc2ccc([N+](=O)[O-])cc2C1=Nc1cccc(CO)c1
[15]
  IC50: 8.6 µM (active)
[16]
  IC50: 12.4 µM (active)
SUMO-activating enzyme [3]
  IC50: 5.51 µM (active)
SUMO-activating enzyme [4]
  IC50: 18.7 µM (active)
[17]
  IC50: 7.06 µM (active)
Beta-galactosidase
  EC50: > 40 µM (inactive)
[18]
  IC50: > 40 µM (not active)

## COc1ccc(CC(=O)Nc2cc(Cl)ccc2C(=O)O)cc1
Hexokinase
  IC50: > 25 µM (inactive)

## COc1ccc(OC)c(S(=O)(=O)n2cc(C(N)=O)c3ccccc32)c1
[10]
  IC50: > 100 µM (inactive)
[11]
  IC50: > 100 µM (not active)

## Cc1ccc(N(CC(O)COCc2ccco2)S(=O)(=O)c2ccc(C)cc2)cc1 (centres undefined)
[7]
  IC50: 28 µM (active)
[9]
  IC50: > 50 µM (inactive)

## CC(C)c1cccc(C(=O)Nc2cc(Cl)ccc2C(=O)O)c1
Hexokinase
  IC50: > 25 µM (inactive)

## C/C(Cn1nnc([N+](=O)[O-])n1)=N\NC(=O)c1ccc(C)cc1
[1]
  IC50: > 100 µM (inactive)
[2]
  IC50: > 100 µM (not active)

## COC(=O)c1cc(-c2ccc3ccccc3c2)[nH]n1
[10]
  IC50: 0.6 µM (active)
[11]
  IC50: > 100 µM (not active)
